Tests used:
[1] = Inhibition of Aspergillus niger amyloglucosidase using p-nitrophenyl glycoside as substrate assessed as release of p-nitrophenol measured by spectrometric assay
[2] = Inhibition of rat intestinal maltase using maltose as substrate assessed as release of D-glucose measured by spectrometric assay
[3] = biological target: Alpha-galactosidase (Coffea arabica, UniProt Q42656); assay: Inhibition of coffee beans alpha-galactosidase using p-nitrophenyl glycoside as substrate assessed as release of p-nitrophenol measured by spectrometric assay
[4] = Inhibition of jack bean alpha-mannosidase using p-nitrophenyl glycoside as substrate assessed as release of p-nitrophenol measured by spectrometric assay; set-up: species or system Canavalia ensiformis
[5] = tested on: Penicillium decumbens; assay: Inhibition of Penicillium decumbens alpha-L-rhamnosidase using p-nitrophenyl glycoside as substrate assessed as release of p-nitrophenol at 1000 uM measured by spectrometric assay relative to control
[6] = Inhibition of porcine kidney alpha-trehalase using p-nitrophenyl glycoside as substrate assessed as release of p-nitrophenol measured by spectrometric assay; set-up: species or system Sus scrofa
[7] = tested on: Prunus dulcis; assay: Inhibition of almond beta-glucosidase using p-nitrophenyl glycoside as substrate assessed as release of p-nitrophenol at 1000 uM measured by spectrometric assay relative to control
[8] = Inhibition of Penicillium decumbens alpha-L-rhamnosidase using p-nitrophenyl glycoside as substrate assessed as release of p-nitrophenol measured by spectrometric assay
[9] = biological target: T1, Sucrase-isomaltase, intestinal (Rattus norvegicus, UniProt P23739); assay: Inhibition of rat intestinal sucrase using p-nitrophenyl glycoside as substrate assessed as release of p-nitrophenol measured by spectrometric assay; conditions: read-out: IC50
[10] = tested on: Helix pomatia; assay: Inhibition of snail beta-mannosidase using p-nitrophenyl glycoside as substrate assessed as release of p-nitrophenol at 1000 uM measured by spectrometric assay relative to control
[11] = Inhibition of almond beta-glucosidase using p-nitrophenyl glycoside as substrate assessed as release of p-nitrophenol measured by spectrometric assay; set-up: species or system Prunus dulcis
[12] = Inhibition of rice alpha-glucosidase using p-nitrophenyl glycoside as substrate assessed as release of p-nitrophenol measured by spectrometric assay; set-up: species or system Oryza sativa
[13] = Inhibition of snail beta-mannosidase using p-nitrophenyl glycoside as substrate assessed as release of p-nitrophenol measured by spectrometric assay; set-up: species or system Helix pomatia
[14] = biological target: Beta-glucuronidase (Escherichia coli (strain K12), UniProt P05804); assay: Inhibition of Escherichia coli beta-glucuronidase using p-nitrophenyl glycoside as substrate assessed as release of p-nitrophenol measured by spectrometric assay
[15] = biological target: T2, Tissue alpha-L-fucosidase (Bos taurus, UniProt Q2KIM0); assay: Inhibition of bovine kidney alpha-L-fucosidase using p-nitrophenyl glycoside as substrate assessed as release of p-nitrophenol measured by spectrometric assay
T2 sequence (Q2KIM0 whole entry): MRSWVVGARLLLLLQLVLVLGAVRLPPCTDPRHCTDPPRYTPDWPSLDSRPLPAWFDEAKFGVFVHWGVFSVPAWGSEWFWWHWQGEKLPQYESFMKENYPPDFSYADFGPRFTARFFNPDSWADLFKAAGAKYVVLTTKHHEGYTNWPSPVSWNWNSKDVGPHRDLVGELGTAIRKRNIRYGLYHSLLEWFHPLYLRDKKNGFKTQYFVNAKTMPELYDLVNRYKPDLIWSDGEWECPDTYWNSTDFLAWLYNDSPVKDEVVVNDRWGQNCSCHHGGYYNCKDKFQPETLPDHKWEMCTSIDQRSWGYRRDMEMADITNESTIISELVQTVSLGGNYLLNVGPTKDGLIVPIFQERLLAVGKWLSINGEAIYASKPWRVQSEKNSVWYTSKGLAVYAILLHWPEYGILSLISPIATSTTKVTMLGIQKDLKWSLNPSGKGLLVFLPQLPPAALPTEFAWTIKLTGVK

[16] = biological target: T3, Tissue alpha-L-fucosidase (Bos taurus) (UniProt Q2KIM0); assay: Inhibition of bovine kidney alpha-L-fucosidase using p-nitrophenyl glycoside as substrate assessed as release of p-nitrophenol at 1000 uM measured by spectrometric assay relative to control; assay type: tissue-based
T3 sequence (whole entry): T2 sequence (Q2KIM0 whole entry)

[17] = Inhibition of bovine liver beta-galactosidase using p-nitrophenyl glycoside as substrate assessed as release of p-nitrophenol measured by spectrometric assay; assay type: tissue-based, Bos taurus
[18] = Inhibition of bovine liver beta-glucosidase using p-nitrophenyl glycoside as substrate assessed as release of p-nitrophenol measured by spectrometric assay; set-up: species or system Bos taurus
[19] = biological target: T1, Sucrase-isomaltase, intestinal; assay: Inhibition of rat intestinal isomaltase using p-nitrophenyl glycoside as substrate assessed as release of p-nitrophenol measured by spectrometric assay; conditions: read-out: IC50
[20] = biological target: T4, Alpha-mannosidase (Canavalia ensiformis) (UniProt C0HJB3); assay: Inhibition of jack bean alpha-mannosidase using p-nitrophenyl glycoside as substrate assessed as release of p-nitrophenol at 1000 uM measured by spectrometric assay relative to control
T4 sequence (whole entry): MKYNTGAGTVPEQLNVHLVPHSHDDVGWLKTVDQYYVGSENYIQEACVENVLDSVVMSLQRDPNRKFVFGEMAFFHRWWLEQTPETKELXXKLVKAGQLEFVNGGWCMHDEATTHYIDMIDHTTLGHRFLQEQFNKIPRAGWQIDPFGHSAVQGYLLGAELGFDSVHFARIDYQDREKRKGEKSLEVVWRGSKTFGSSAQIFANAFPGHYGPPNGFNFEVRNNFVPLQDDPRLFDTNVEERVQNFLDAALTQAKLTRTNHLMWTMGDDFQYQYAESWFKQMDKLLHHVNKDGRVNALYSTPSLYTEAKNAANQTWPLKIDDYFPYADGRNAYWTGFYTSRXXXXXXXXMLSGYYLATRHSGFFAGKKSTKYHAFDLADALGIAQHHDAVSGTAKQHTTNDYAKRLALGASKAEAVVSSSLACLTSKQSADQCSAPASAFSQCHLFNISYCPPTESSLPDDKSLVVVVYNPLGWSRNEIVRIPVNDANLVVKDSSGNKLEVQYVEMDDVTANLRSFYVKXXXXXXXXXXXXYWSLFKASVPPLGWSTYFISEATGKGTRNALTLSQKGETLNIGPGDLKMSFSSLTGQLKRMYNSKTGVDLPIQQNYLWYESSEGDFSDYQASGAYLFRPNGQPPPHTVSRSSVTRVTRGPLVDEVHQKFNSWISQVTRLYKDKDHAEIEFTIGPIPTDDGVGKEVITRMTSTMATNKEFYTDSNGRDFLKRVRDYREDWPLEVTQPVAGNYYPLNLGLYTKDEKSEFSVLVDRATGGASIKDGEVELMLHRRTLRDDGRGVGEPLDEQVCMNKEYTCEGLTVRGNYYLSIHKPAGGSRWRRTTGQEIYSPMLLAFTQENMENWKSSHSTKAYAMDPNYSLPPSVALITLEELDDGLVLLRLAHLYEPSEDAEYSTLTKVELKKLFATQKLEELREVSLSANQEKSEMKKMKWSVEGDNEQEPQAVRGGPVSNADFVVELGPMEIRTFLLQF

[21] = tested on: Aspergillus niger; assay: Inhibition of Aspergillus niger amyloglucosidase using p-nitrophenyl glycoside as substrate assessed as release of p-nitrophenol at 1000 uM measured by spectrometric assay relative to control
[22] = species on record: Sus scrofa; assay: Inhibition of porcine kidney alpha-trehalase using p-nitrophenyl glycoside as substrate assessed as release of p-nitrophenol at 1000 uM measured by spectrometric assay relative to control
[23] = species on record: Bos taurus; assay: Inhibition of bovine liver beta-galactosidase using p-nitrophenyl glycoside as substrate assessed as release of p-nitrophenol at 1000 uM measured by spectrometric assay relative to control
[24] = biological target: Beta-glucuronidase (Escherichia coli (strain K12)) (UniProt P05804); assay: Inhibition of Escherichia coli beta-glucuronidase using p-nitrophenyl glycoside as substrate assessed as release of p-nitrophenol at 1000 uM measured by spectrometric assay relative to control
[25] = species on record: Bos taurus; assay: Inhibition of bovine liver beta-glucosidase using p-nitrophenyl glycoside as substrate assessed as release of p-nitrophenol at 1000 uM measured by spectrometric assay relative to control; assay type: tissue-based

T1 sequence (P23739 1-1013 limits assumed): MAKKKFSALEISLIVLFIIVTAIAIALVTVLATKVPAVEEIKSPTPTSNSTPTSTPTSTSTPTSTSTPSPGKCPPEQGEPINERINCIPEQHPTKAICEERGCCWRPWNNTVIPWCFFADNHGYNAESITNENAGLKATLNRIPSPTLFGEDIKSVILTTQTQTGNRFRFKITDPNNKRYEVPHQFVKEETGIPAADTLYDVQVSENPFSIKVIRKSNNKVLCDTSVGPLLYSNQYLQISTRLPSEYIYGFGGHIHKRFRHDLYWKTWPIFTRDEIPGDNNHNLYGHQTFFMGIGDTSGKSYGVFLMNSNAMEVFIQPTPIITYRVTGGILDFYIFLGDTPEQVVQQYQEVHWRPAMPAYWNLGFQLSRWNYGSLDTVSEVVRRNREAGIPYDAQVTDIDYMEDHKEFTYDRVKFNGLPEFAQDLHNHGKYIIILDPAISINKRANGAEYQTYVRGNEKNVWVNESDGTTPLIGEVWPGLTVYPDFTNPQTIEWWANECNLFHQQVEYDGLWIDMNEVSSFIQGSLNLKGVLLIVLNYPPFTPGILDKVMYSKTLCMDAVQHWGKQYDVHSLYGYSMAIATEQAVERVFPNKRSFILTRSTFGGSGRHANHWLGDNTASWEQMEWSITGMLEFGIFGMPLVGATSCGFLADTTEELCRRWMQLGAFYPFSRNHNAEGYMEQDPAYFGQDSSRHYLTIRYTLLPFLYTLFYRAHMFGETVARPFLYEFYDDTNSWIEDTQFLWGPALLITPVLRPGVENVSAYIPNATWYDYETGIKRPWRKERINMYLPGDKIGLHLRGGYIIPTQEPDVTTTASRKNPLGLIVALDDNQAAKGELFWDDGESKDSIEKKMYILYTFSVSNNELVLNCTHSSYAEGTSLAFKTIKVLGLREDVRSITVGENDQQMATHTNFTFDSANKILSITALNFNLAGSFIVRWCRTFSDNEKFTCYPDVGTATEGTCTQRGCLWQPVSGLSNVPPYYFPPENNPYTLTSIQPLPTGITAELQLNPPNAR
T1 sequence (P23739 1014-1841 limits assumed): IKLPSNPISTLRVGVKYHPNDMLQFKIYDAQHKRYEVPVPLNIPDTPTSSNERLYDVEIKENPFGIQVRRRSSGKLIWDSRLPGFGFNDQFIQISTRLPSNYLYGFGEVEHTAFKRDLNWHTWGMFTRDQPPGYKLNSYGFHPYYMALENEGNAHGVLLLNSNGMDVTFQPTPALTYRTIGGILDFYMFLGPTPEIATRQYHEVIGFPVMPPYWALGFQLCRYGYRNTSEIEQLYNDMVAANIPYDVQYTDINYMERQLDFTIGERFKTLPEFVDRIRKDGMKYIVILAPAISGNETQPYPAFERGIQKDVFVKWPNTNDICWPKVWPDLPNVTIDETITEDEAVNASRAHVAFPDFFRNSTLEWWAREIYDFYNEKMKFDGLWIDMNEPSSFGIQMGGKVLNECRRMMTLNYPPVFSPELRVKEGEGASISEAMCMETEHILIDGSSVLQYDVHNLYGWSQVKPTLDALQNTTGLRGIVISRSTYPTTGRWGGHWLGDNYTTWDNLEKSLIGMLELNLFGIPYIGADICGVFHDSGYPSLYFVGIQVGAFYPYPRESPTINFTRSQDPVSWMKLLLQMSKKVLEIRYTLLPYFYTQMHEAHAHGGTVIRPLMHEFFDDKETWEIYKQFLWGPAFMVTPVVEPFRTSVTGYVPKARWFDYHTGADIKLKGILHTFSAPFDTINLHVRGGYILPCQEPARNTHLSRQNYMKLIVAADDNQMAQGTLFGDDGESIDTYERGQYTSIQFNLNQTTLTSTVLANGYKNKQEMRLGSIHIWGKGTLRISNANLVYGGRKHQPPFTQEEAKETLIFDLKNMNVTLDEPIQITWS
Chain of Beta-glucuronidase (P05804 whole entry): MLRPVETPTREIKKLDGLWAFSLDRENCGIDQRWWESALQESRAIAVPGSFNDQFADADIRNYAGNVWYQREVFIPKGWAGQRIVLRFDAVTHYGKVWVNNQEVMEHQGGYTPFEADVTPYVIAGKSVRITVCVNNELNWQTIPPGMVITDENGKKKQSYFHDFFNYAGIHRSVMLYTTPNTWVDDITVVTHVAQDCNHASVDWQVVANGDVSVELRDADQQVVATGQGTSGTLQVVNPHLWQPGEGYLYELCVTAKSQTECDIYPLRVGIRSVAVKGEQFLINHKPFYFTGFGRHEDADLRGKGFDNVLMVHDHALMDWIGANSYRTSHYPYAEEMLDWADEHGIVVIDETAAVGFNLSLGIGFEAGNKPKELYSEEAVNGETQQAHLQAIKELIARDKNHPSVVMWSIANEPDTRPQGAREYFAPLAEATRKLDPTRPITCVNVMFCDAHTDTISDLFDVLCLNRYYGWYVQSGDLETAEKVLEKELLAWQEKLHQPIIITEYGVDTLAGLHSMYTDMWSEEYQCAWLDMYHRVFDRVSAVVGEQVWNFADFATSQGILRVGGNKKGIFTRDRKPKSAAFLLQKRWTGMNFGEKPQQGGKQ
Chain of Beta-glucuronidase (Escherichia coli (strain K12)) (P05804 whole entry, looked up): as the sequence (P05804 whole entry) above
Chain of Alpha-galactosidase (Q42656 whole entry): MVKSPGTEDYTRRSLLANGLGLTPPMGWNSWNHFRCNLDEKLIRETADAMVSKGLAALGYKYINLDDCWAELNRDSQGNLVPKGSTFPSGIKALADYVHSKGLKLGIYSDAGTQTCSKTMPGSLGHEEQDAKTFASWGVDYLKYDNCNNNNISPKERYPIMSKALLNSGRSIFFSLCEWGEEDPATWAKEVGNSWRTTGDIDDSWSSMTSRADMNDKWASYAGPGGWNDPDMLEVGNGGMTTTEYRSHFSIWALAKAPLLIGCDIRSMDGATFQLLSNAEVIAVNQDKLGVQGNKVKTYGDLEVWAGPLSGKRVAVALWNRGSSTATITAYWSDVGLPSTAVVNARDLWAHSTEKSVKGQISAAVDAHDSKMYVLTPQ

Compound	IC50 [1]	IC50 [2]	IC50 ([3]; read-out: IC50)	IC50 [4]	inhibition [5]	inhibition [7]	IC50 [8]	IC50 [9]	inhibition [10]	IC50 [11]	IC50 ([12]; read-out: IC50)	IC50 [13]	IC50 [15]	inhibition [16]	IC50 [19]	inhibition [20]	inhibition [21]	IC50 [6]	inhibition [22]	IC50 [14]	also measured
CCCC[C@]1(CO)NC[C@H](O)[C@@H](O)[C@@H]1O.Cl	Not Active	170 nM	58000 nM	Not Active	16.3%	36.6%	Not Active	560 nM	16.5%	Not Active	140 nM	Not Active	Not Active	10.3%	2600 nM	6.6%	17.1%	Not Active	33.5%		IC50 ([14]; read-out: IC50): 679000 nM; IC50 ([17]; read-out: IC50): 127000 nM; IC50 ([18]; read-out: IC50): 315000 nM
OC[C@@H]1NC[C@H](O)[C@@H](O)[C@@H]1O	Not Active	8400 nM		Not Active			Not Active			Not Active		Not Active	Not Active					Not Active		Not Active	IC50 [3]: Not Active; IC50 [12]: Not Active; IC50 [17]: Not Active; IC50 [18]: Not Active
CCCCCCCCCC[C@]1(CO)NC[C@H](O)[C@@H](O)[C@@H]1O.Cl	Not Active	120 nM	18000 nM	Not Active	0%	10%	Not Active	1700 nM	0%	Not Active	33 nM	Not Active	Not Active	0.9%	13000 nM	4.3%	9.2%	Not Active	5.7%	Not Active	inhibition [24]: 24.4%; IC50 ([18]; read-out: IC50): 21000 nM

Further lines, with some results ahead:

IC50 [1]	IC50 [2]	IC50 ([3]; read-out: IC50)	IC50 [4]	inhibition [5]	inhibition [7]	IC50 [8]	IC50 [9]	inhibition [10]	IC50 [11]	IC50 ([12]; read-out: IC50)	IC50 [13]	IC50 [15]	inhibition [16]	IC50 [19]	inhibition [20]	inhibition [21]	IC50 [6]	inhibition [22]	IC50 [14]	Compound	also measured
Not Active	120 nM	15000 nM	Not Active	9.1%	41.7%	Not Active	450 nM	2.5%	Not Active	28 nM	Not Active	Not Active	25.3%	1700 nM	10.7%	14.1%				CCCCCCCCC[C@]1(CO)NC[C@H](O)[C@@H](O)[C@@H]1O.Cl	IC50 ([6]; read-out: IC50): 494000 nM; IC50 ([14]; read-out: IC50): 158000 nM; IC50 ([17]; read-out: IC50): 68000 nM; IC50 ([18]; read-out: IC50): 211000 nM
Not Active	19 nM	98000 nM	Not Active	5.7%	15.7%	Not Active	120 nM	0.5%	Not Active	29 nM	Not Active	Not Active	6.6%	340 nM	4.6%	5.9%	Not Active	23%	Not Active	CCCCCCCC[C@]1(CO)NC[C@H](O)[C@@H](O)[C@@H]1O.Cl	inhibition [23]: 35.2%; inhibition [24]: 12%; IC50 [17]: Not Active; IC50 [18]: Not Active; inhibition [25]: 14.3%
Not Active	32 nM	3600 nM	Not Active	4.5%	10%	Not Active	190 nM	0%	Not Active	20 nM	Not Active	Not Active	6.6%	1100 nM	2.1%	0%	Not Active	20.3%	Not Active	CCCCCCCCCCC[C@]1(CO)NC[C@H](O)[C@@H](O)[C@@H]1O.Cl	inhibition [24]: 25.2%; IC50 ([17]; read-out: IC50): 70000 nM; IC50 [18]: Not Active; inhibition [25]: 3.7%
Not Active	36 nM	109000 nM	Not Active	0%	36.3%	Not Active	230 nM	8.5%	Not Active	50 nM	Not Active	Not Active	45.9%	550 nM	17.3%	12.2%	Not Active	12.9%		CCCCCCC[C@]1(CO)NC[C@H](O)[C@@H](O)[C@@H]1O.Cl	inhibition [23]: 29%; IC50 ([14]; read-out: IC50): 28000 nM; IC50 [17]: Not Active; IC50 [18]: Not Active; inhibition [25]: 20.5%
